Assays:
[1] = test system: ABL1 (human), P00519 [F317I]; experiment: KINOMEscan competition binding; settings: compound 10.0 µM
[2] = biological target: ALK (human) (UniProt Q9UM73); experiment: KINOMEscan competition binding; settings: compound 10.0 µM
[3] = biological target: DCLK1 (human) (UniProt O15075); experiment: KINOMEscan competition binding
[4] = biological target: DCLK2 (human) (UniProt Q8N568); experiment: KINOMEscan competition binding; settings: compound 10.0 µM
[5] = biological target: GAK (human) (UniProt O14976); experiment: KINOMEscan competition binding; settings: compound 10.0 µM
[6] = biological target: MAPK7 (human) (UniProt Q13164); experiment: KINOMEscan competition binding; settings: compound 10.0 µM
[7] = biological target: PLK4 (human) (UniProt O00444); experiment: KINOMEscan competition binding; settings: compound 10.0 µM
[8] = biological target: ROS1 (human) (UniProt P08922); experiment: KINOMEscan competition binding; settings: compound 10.0 µM
Chain of ROS1 (human) (P08922 whole entry, looked up): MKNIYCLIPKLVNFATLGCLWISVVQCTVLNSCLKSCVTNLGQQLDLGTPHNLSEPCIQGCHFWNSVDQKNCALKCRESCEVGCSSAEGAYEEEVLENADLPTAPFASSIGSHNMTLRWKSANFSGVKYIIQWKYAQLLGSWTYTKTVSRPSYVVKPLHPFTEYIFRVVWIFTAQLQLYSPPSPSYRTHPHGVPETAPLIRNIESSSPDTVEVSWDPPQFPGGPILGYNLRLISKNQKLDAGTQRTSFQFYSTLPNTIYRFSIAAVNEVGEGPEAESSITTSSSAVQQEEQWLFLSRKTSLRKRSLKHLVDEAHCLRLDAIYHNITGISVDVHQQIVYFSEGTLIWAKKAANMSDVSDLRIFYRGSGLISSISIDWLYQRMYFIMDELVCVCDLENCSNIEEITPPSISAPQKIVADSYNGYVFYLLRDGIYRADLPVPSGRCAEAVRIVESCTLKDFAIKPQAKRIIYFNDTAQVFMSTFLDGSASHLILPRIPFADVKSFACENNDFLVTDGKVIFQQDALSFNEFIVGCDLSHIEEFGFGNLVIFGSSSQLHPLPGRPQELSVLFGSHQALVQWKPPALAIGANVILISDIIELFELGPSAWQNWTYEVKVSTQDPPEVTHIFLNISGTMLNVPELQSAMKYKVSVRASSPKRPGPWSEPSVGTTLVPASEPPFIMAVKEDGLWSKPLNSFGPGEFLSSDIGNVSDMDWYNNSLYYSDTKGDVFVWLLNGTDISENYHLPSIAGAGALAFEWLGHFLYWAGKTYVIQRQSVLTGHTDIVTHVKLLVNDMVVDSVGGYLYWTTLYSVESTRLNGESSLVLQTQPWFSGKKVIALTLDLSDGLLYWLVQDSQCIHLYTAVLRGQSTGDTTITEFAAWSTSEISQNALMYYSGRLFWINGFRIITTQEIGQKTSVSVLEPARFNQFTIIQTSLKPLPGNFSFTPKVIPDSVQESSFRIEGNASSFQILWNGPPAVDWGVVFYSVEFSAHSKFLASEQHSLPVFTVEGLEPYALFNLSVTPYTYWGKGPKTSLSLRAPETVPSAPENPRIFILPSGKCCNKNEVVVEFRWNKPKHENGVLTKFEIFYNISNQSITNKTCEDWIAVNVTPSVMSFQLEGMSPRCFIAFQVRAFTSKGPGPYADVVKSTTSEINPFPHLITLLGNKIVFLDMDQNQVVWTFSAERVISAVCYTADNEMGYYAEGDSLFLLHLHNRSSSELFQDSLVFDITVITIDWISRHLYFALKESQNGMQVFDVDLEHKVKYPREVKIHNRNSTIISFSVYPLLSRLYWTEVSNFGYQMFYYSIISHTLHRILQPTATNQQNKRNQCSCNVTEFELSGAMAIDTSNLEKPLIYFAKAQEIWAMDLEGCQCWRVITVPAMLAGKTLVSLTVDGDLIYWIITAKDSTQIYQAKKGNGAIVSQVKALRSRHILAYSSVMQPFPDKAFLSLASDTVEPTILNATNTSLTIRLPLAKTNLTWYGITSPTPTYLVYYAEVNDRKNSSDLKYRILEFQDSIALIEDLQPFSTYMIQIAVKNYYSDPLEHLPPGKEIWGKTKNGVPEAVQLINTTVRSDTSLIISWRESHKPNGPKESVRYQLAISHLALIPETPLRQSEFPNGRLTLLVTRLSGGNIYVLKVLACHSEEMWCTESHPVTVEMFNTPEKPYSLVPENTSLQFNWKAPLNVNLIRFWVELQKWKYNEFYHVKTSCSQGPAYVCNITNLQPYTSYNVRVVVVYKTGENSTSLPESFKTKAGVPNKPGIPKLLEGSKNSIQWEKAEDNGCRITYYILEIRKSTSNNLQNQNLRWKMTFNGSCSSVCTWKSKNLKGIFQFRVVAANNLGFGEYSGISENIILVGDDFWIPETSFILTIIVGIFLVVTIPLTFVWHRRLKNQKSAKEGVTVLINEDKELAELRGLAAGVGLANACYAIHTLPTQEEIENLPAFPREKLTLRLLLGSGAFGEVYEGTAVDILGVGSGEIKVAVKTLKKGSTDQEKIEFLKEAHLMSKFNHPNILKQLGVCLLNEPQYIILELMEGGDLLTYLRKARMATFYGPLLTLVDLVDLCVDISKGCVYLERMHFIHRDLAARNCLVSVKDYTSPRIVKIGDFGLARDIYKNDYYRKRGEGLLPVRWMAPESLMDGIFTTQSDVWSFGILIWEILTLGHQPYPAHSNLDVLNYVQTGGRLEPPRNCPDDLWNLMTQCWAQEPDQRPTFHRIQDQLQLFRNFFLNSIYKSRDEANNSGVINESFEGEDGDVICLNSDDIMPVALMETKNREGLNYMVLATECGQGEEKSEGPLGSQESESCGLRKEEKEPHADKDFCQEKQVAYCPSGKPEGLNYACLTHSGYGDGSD

[9] = biological target: RPS6KA1 KD2 (human) (UniProt Q15418); experiment: KINOMEscan competition binding; settings: compound 10.0 µM
[10] = biological target: RPS6KA6 KD2 (human) (UniProt Q9UK32); experiment: KINOMEscan competition binding; settings: compound 10.0 µM
[11] = biological target: TNK1 (human) (UniProt Q13470); experiment: KINOMEscan competition binding; settings: compound 10.0 µM
[12] = biological target: TNK2 (human) (UniProt Q07912); experiment: KINOMEscan competition binding; settings: compound 10.0 µM
[13] = biological target: TTK (human) (UniProt P33981); experiment: KINOMEscan competition binding; settings: compound 10.0 µM
[14] = biological target: LRRK2 (human), Q5S007 [G2019S]; experiment: SelectScreen, TR FRET
[15] = biological target: MAP3K2 (human) (UniProt Q9Y2U5); experiment: SelectScreen, TR FRET
[16] = biological target: MAP3K3 (human) (UniProt Q99759); experiment: SelectScreen, TR FRET
[17] = biological target: TAOK2 (human) (UniProt Q9UL54); experiment: SelectScreen, TR FRET
Chain of TAOK2 (human) (Q9UL54 whole entry, looked up): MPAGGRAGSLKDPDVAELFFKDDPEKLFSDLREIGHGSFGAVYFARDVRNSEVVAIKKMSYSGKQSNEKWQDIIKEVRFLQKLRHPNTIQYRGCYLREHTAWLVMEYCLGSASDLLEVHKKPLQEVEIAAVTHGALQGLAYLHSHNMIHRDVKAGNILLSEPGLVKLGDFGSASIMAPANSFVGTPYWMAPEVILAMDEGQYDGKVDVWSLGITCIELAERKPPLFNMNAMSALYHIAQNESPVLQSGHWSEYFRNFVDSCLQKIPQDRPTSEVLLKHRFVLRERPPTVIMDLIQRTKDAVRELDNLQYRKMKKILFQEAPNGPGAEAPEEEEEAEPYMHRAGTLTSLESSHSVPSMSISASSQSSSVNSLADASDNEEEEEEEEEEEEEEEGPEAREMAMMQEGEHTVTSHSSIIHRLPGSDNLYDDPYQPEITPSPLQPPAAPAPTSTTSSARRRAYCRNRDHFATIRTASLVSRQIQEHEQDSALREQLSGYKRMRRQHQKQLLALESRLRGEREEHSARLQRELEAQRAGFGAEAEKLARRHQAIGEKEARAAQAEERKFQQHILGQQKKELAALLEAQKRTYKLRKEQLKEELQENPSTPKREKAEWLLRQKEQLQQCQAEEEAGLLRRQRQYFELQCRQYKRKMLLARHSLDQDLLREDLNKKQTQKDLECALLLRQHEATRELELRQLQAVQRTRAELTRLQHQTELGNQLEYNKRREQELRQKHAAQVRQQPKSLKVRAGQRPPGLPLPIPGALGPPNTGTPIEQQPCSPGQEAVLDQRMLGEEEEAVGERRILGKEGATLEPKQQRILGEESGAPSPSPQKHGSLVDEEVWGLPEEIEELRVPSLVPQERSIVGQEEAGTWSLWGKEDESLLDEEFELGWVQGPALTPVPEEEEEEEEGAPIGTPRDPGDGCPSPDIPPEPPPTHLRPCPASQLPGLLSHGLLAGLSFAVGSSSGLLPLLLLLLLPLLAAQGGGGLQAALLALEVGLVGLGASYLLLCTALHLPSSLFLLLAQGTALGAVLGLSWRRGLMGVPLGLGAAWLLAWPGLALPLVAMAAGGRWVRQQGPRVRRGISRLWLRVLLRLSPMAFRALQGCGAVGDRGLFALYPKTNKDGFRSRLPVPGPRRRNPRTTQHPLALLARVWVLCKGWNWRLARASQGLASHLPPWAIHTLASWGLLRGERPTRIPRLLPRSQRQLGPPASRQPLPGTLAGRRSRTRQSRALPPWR

Chain of DCLK1 (human) (O15075 whole entry, looked up): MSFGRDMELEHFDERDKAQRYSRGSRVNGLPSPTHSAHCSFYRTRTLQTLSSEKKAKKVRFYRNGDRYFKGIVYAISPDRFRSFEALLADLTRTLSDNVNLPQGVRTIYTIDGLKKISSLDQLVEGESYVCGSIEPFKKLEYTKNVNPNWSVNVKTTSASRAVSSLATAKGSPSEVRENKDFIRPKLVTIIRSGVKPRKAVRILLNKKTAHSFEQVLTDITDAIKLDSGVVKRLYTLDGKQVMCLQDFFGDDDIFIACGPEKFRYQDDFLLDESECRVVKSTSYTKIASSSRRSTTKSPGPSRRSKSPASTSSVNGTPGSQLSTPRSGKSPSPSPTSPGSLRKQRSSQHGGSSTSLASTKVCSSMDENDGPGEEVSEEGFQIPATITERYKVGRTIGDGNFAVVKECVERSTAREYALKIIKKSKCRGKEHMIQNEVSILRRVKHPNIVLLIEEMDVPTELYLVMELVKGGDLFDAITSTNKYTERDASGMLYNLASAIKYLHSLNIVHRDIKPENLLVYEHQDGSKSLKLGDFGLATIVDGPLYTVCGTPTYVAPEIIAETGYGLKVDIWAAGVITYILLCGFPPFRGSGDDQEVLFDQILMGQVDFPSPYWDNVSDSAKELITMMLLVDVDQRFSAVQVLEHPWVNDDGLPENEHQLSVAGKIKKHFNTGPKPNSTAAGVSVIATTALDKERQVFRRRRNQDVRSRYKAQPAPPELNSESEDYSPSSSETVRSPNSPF
Chain of DCLK2 (human) (Q8N568 whole entry, looked up): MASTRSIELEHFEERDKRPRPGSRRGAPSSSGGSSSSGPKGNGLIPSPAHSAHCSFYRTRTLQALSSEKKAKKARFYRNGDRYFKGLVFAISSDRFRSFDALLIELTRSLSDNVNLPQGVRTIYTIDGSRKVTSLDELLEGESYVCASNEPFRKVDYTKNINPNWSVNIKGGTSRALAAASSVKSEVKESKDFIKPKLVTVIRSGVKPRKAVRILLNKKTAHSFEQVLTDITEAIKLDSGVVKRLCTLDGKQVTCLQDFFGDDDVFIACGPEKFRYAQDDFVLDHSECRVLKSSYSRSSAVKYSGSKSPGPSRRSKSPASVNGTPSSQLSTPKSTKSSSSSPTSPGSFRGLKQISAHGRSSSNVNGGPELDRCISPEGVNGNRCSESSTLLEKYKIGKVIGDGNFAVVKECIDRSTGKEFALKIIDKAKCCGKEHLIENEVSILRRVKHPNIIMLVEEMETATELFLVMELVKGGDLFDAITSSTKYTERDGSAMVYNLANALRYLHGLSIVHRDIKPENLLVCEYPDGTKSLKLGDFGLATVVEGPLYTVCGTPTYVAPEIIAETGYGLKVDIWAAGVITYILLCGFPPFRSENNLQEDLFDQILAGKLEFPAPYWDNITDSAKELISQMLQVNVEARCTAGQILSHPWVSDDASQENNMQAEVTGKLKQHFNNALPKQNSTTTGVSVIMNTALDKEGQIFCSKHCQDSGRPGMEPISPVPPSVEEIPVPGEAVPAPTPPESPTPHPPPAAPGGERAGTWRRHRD

kinase still bound, per cent of control [1]: 30%
kinase still bound, per cent of control [2]: 29%
Kd [3]: 0.097 µM
kinase still bound, per cent of control ([3]; compound 10.0 µM): 0.9%
kinase still bound, per cent of control [4]: 0.65%
kinase still bound, per cent of control [5]: 31%
kinase still bound, per cent of control [6]: 0%
kinase still bound, per cent of control [7]: 2.8%
kinase still bound, per cent of control [8]: 15%
kinase still bound, per cent of control [9]: 28%
kinase still bound, per cent of control [10]: 31%
kinase still bound, per cent of control [11]: 7.8%
kinase still bound, per cent of control [12]: 17%
kinase still bound, per cent of control [13]: 19%
IC50 [14]: 0.0026 µM
IC50 [15]: 0.155 µM
IC50 [16]: 0.12 µM
IC50 [17]: 0.0543 µM
Compound: CCOc1cc(N2CCC(O)CC2)ccc1Nc1ncc2c(n1)N(C)c1ccccc1C(=O)N2C

From the kinase profiling compilation of Christmann-Franck et al. (2016)
